Source: patent publication US11541065B2, “Compositions and methods for treating brain injury” (UNM RAINFOREST INNOVATIONS, priority 2018, dated 2023)

Key:
[1] = system: hyperhomocysteinemic rats subjected to MCAO; test: Cylinder test after MCAO; assay type: in vivo, male Wistar rats; conditions: HHcy rats, day 8 after MCAO, NVP-AAM077 1.2 mg/kg; untreated HHcy 24.24±2.37%
Protocol: (§1) All rats were subjected to a battery of behavioral tests on day 7 (CatWalk), day 8 (cylinder and rotarod tests) and day 9 (adhesive test) after MCAO to evaluate normal gait, motor coordination and sensory motor functions. Habituation and training (3 days) was performed for one week before MCAO. The first two trainings days were before osmotic pump implantation and the third training day was after pump implantation. An experienced observer blinded to the experimental conditions evaluated all behavioral parameters.
Cylinder test: Control, hyperhomocysteinemic and NVP-AAM077 treated hyperhomocysteinemic rats were subjected to cylinder test to assess the post-stroke asymmetry in fore-limb use (Balkaya, 2013, J Cereb Blood Flow Metab 33:330-338). The rats were placed individually inside a transparent plexiglass cylinder (diameter 20 cm, height 45 cm). A vertical exploration movement with either the left or right forelimb along the wall was scored as contact of each paw with the glass wall for a total period of 2 minutes. Simultaneous contact by both paws was scored separately. Two trials (10 min rest between trials) were recorded and the percentage use of the affected fore limb was calculated (Liu et al., 2013, Behav Brain Res 257:166-177; Schaar et al., 2010, Exp Transl Stroke Med 2:13).

[2] = system: hyperhomocysteinemic rats subjected to MCAO; test: CatWalk gait analysis after MCAO; assay type: in vivo, male Wistar rats; conditions: HHcy rats, 7 days after MCAO, NVP-AAM077 1.2 mg/kg
Protocol: as §1
Catwalk: An automated quantitative gait analysis system (Catwalk XT 10.5, Noldus) was used to assess deficits in normal gait in the control, hyperhomocysteinemic and NVP-AAM077 treated hyperhomocysteinemic rats as described earlier (Parkkinen et a., 2013, Stroke Res Treat 2013:410972; Wang et al., 2008, J Cereb Blood Flow Metab 28:1936-50). Briefly, rats were trained to walk on a glass platform or walkway (1.3 m long and 90 mm wide) with a fluorescent light reflected internally in the glass floor as the rats cross the walkway, scattering at points where the paws touch the glass. […] The camera recorded three such complete or successful runs across the walkway and the average of the three runs is reported. An experienced observer, blinded to the experimental group, labeled each paw on the recorded video and paw-related parameters were analyzed. […]

[3] = system: hyperhomocysteinemic rats subjected to MCAO; test: Accelerated Rotarod test after MCAO; assay type: in vivo, male Wistar rats; conditions: HHcy rats, day 8 post MCAO, NVP-AAM077 1.2 mg/kg; untreated HHcy 96.99±4.11 sec
Protocol: as §1
Accelerated Rotarod test: Control, hyperhomocysteinemic and NVP-AAM077 treated hyperhomocysteinemic rats were subjected to the accelerated Rotarod test to evaluate impairment of motor co-ordination and balance following stroke (Bouet et al., 2007, Exp Neurol 203:555-567; Schaar et al., 2010, Exp Transl Stroke Med 2:13). Rats were placed on a rotating cylindrical rod accelerating from 0 to 50 rpm for a period of 180 seconds, and their latency to fall was recorded. The mean of four runs (10 min rest between trials) was used for statistical analysis. One hyperhomocysteinemic rat was excluded from the study as the rat jumped off the rod repeatedly.

PGE2 = PGE2 release from WT and GluN2A-KO mouse neuronal cultures; assay type: cell-based, mice; conditions: homocysteine 50 μM, four hours
Protocol: Neuron cultures were treated with or without L-homocysteine in the presence or absence of pharmacological inhibitors for the time period specified in each experiment. The medium was collected from each experimental plate and centrifuged at 1000 rpm for five minutes to remove cellular debris. Equal amounts (100 μl) of the supernatant from each sample were used to determine the amount of PGE2 using the PGE2 enzyme immunoassay kit according to the manufacturer's instructions. For measurement of cPLA2 activity, the neuronal cells from the above treated conditions were harvested in ice-cold Tris-buffered saline (pH7.4) containing sodium pyrophosphate as phosphatase inhibitor, sonicated three times with five-second bursts and two minutes on ice between intervals. The lysed cell suspensions were centrifuged at 10,000 rpm for 10 minutes and the supernatant removed. Equal amounts of protein from the supernatant (assessed using BCA protein estimation kit) were estimated for activity of cPLA2 using cPLA2 activity assay kit according to the manufacturer's protocol.
For measurement of PGE2 levels and MCP-1 levels released from neurons, culture medium was collected from each experimental plate and centrifuged at 1000 rpm for five minutes to remove cellular debris. […]

| SMILES | spontaneous usage of the affected forepaw [1] [%] | print position of the affected side ([2]; untreated HHcy 0.72±0.15) [cm] | print area of the affected forepaw ([2]; untreated HHcy 1.06±0.097) [cm^2] | latency to fall from accelerated rotarod [3] [s] | PGE2 release (PGE2; GluN2A-KO mice cultures) | PGE2 release (PGE2; WT mice cultures) |
| --- | --- | --- | --- | --- | --- | --- |
| C[C@H](NC(c1cccc2[nH]c(=O)c(=O)[nH]c12)P(=O)(O)O)c1ccc(Br)cc1 (stereo partly drawn) [NVP-AAM077, ({[(1S)-1-(4-bromophenyl)ethyl]amino}-(2,3-dioxo-1,4-dihydroquinoxalin-5-yl)methyl)phosphonic acid] | 40.51±1.86 | 1.37±0.097 | 1.41±0.092 | 112.51 ± 4.9 |  |  |
| N[C@@H](CCS)C(=O)O [L-homocysteine] |  |  |  |  | fails to induce PGE2 release | significantly increases PGE2 release |
